Source: patent publication US11566007B2, “Ras inhibitors” (Revolution Medicines, Inc., priority 2019, dated 2023)
Values joined by “and” are separate entries in the source; they are usually repeats but may differ in a detail not shown here. Equal values may be shown once. Read-outs that look alike come from different tables or passages of the source.

How the values were obtained:
[1] = tested on: NCI-H358 cells (K-Ras G12C); assay: Potency assay: pERK in NCI-H358 cells; type: cell-based, human; settings: Homo sapiens, NCI-H358; H358 KRAS G12C; read-out: pERK EC50
Method in brief: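 4 h cpd, 37 °C; 10-pt 3-fold series, 10 mM DMSO top stock, duplicates. Readout pERK: AlphaLISA SureFire Ultra or In-Cell Western (IR-800CW secondary, DRAQ5 DNA stain). IC50, 4-PL fit vs log conc.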

KRAS WT = KRAS WT (Homo sapiens (Human), UniProt P01116+P62937); assay: Ras-Raf (BRAF RBD) disruption / FRET / MOA assay, KRAS WT; type: biochemical; settings: read-out: IC50* KRAS WT FRET data
Chain of KRAS WT (P01116-2 other isoform, or with tags, fused parts or gaps): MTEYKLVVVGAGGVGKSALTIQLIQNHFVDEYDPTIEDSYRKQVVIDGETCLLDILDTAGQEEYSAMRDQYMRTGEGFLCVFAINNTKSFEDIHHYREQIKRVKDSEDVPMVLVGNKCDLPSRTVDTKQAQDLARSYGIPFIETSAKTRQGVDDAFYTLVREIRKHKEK
Chain of KRAS WT (P62937 whole entry): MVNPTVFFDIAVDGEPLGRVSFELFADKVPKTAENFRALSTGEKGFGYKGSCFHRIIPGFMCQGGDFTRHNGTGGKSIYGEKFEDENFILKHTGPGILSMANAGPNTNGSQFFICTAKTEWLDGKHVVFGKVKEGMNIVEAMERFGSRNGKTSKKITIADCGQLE
Method in brief: (§1)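 Ras:RAF disruption was scored as a fall in TR-FRET ratio relative to DMSO. Compound ranged in 3-fold steps over 10 points from 30 μM final; incubation ran 3 h at 25° C, detection antibodies a further 1.5 h. Reported as IC50.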

K-Ras G13C = K-Ras G13C (Homo sapiens (Human), UniProt P01116+P62937, G13C); assay: Ras-Raf (BRAF RBD) disruption / FRET / MOA assay, KRAS G13C; type: biochemical; settings: KRAS G13C; Ras-Raf disruption/FRET/MOA assay; read-out: IC50* KRAS G13C FRET data
Chain of K-Ras G13C (P01116-2 other isoform, or with tags, fused parts or gaps G13C): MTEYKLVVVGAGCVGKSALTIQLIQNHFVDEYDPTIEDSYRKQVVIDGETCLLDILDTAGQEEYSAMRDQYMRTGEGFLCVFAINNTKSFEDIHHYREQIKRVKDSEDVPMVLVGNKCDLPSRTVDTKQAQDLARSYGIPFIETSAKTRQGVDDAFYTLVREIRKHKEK
Chain of K-Ras G13C (P62937 whole entry): as the sequence (P62937 whole entry) above
Method in brief: as §1

K-Ras G12C = K-Ras G12C (Homo sapiens (Human), UniProt P01116+P62937, G12C); assay: Ras-Raf (BRAF RBD) disruption / FRET / MOA assay, KRAS G12C; type: biochemical; settings: KRAS G12C; Ras-Raf disruption/FRET/MOA assay; read-out: IC50* KRAS G12C FRET data
Chain of K-Ras G12C (P01116-2 other isoform, or with tags, fused parts or gaps G12C): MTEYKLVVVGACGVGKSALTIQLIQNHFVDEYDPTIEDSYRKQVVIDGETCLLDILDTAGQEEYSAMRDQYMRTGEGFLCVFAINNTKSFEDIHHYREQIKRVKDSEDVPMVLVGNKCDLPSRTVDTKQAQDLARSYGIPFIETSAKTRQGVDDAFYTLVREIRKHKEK
Chain of K-Ras G12C (P62937 whole entry): as the sequence (P62937 whole entry) above
Method in brief: as §1

NRAS G12C = NRAS G12C (Homo sapiens (Human), UniProt P01111+P62937, G12C); assay: Ras-Raf (BRAF RBD) disruption / FRET / MOA assay, NRAS G12C; type: biochemical; settings: read-out: IC50* NRAS G12C FRET data
Chain of NRAS G12C (P01111 whole entry G12C): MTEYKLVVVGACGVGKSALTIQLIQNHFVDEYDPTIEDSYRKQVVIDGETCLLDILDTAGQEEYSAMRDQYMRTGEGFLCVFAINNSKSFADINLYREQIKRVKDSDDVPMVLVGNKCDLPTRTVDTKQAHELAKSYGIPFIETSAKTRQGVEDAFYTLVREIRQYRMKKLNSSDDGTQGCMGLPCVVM
Chain of NRAS G12C (P62937 whole entry): as the sequence (P62937 whole entry) above
Method in brief: as §1

KRAS G13D = KRAS G13D (Homo sapiens (Human), UniProt P01116+P62937, G13D); assay: Ras-Raf (BRAF RBD) disruption / FRET / MOA assay, KRAS G13D; type: biochemical; settings: read-out: IC50* KRAS G13D FRET data
Chain of KRAS G13D (P01116-2 other isoform, or with tags, fused parts or gaps G13D): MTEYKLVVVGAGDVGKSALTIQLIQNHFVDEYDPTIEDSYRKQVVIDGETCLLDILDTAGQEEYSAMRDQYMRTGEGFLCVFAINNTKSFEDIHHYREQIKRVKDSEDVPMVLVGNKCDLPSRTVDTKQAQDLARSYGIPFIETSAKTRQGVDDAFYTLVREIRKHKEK
Chain of KRAS G13D (P62937 whole entry): as the sequence (P62937 whole entry) above
Method in brief: as §1

KRAS G12V = KRAS G12V (Homo sapiens (Human), UniProt P01116+P62937, G12V); assay: Ras-Raf (BRAF RBD) disruption / FRET / MOA assay, KRAS G12V; type: biochemical; settings: read-out: IC50* KRAS G12V FRET data
Chain of KRAS G12V (P01116-2 other isoform, or with tags, fused parts or gaps G12V): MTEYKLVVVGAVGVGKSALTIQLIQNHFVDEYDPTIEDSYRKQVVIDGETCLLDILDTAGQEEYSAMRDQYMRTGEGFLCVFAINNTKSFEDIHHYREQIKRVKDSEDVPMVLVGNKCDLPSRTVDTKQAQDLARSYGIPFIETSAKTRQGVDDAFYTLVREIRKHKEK
Chain of KRAS G12V (P62937 whole entry): as the sequence (P62937 whole entry) above
Method in brief: as §1

KRAS G12S = KRAS G12S (Homo sapiens (Human), UniProt P01116+P62937, G12S); assay: Ras-Raf (BRAF RBD) disruption / FRET / MOA assay, KRAS G12S; type: biochemical; settings: Ras-Raf disruption/FRET/MOA assay; class symbols; read-out: KRAS G12S FRET data IC50
Chain of KRAS G12S (P01116-2 other isoform, or with tags, fused parts or gaps G12S): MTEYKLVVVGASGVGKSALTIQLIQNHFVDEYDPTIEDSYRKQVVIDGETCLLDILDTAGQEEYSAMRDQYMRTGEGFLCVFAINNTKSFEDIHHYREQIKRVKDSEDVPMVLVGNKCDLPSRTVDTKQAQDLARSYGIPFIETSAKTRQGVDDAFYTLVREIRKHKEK
Chain of KRAS G12S (P62937 whole entry): as the sequence (P62937 whole entry) above
Method in brief: as §1

KRAS G12D = KRAS G12D (Homo sapiens (Human), UniProt P01116+P62937, G12D); assay: Ras-Raf (BRAF RBD) disruption / FRET / MOA assay, KRAS G12D; type: biochemical; settings: Ras-Raf disruption/FRET/MOA assay; class symbols; read-out: KRAS G12D FRET data IC50
Chain of KRAS G12D (P01116-2 other isoform, or with tags, fused parts or gaps G12D): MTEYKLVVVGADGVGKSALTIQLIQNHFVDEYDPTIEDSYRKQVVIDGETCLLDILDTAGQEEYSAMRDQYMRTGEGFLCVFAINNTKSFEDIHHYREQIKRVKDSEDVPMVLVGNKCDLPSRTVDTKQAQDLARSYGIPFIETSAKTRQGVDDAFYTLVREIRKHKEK
Chain of KRAS G12D (P62937 whole entry): as the sequence (P62937 whole entry) above
Method in brief: as §1

NCI-H358 (K-Ras G12C) = assay: CellTiter-Glo cell viability assay, NCI-H358; type: cell-based, human; settings: NCI-H358, 5-day treatment, class symbols, read-out: Additional H358 Cell Viability assay data (K-Ras G12C, IC50)
Method in brief: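 Viability of K-Ras mutant lines is measured by ATP luminescence after five days of compound treatment. Percent of DMSO control is calculated and dose-response data are fitted with a four-parameter logistic equation.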

Row | Structure (SMILES) | EC50 [1] | IC50 (KRAS WT) | IC50 (K-Ras G13C) | IC50 (K-Ras G12C) | IC50 (NRAS G12C) | IC50 (KRAS G13D) | IC50 (KRAS G12V) | IC50 (KRAS G12S) | IC50 (KRAS G12D) | IC50 (NCI-H358 (K-Ras G12C)) | IC50 (NCI-H358 (K-Ras G12C); Homo sapiens, NCI-H358, 120 h)
1 | CCn1c(-c2cccnc2COC)c2c3cc(ccc31)-c1cc(O)cc(c1)C[C@H](NC(=O)[C@H](C(C)C)N(C)C(=O)[C@H]1CCC(C(=O)/C=C\CN(C)C)C1)C(=O)N1CCC[C@H](N1)C(=O)OCC(C)(C)C2 (stereo partly drawn) [Example A164] | < 5000 nM | 100 to 1000 nM | 100 to 1000 nM | 10 to 100 nM | 10 to 100 nM | 100 to 1000 nM | 100 to 1000 nM | 100 to 1000 nM | 1000 to 10000 nM | 100 to 1000 nM | –
2 | CCn1c(-c2cncnc2)c2c3cc(ccc31)-c1csc(n1)C[C@H](NC(=O)[C@H](C(C)C)N(C)C(=O)[C@H]1CCN(C(=O)C#CCN3CCOCC3)C1)C(=O)N1CCC[C@H](N1)C(=O)OCC(C)(C)C2 [Example A177] | < 5000 nM | > 10000 nM | > 10000 nM | 100 to 1000 nM | 100 to 1000 nM | > 10000 nM | > 10000 nM | > 10000 nM | > 10000 nM | – | 100 to 1000 nM
3 | CC#CC(=O)N1CC[C@H](C(=O)N(C)[C@H](C(=O)N[C@H]2Cc3nc(cs3)-c3ccc4c(c3)c(c(-c3cccnc3[C@H](C)OC)n4CC)CC(C)(C)COC(=O)[C@@H]3CCCN(N3)C2=O)C2CCCC2)C1 (atropisomer, axis not shown) [Example A309] | < 5000 nM | 1000 to 10000 nM | 1000 to 10000 nM | 1000 to 10000 nM | 1000 to 10000 nM | > 10000 nM | 1000 to 10000 nM | 1000 to 10000 nM | > 10000 nM | – | < 10 nM
4 | CCn1c(-c2cnccc2[C@H](C)OC)c2c3cc(ccc31)-c1cccc(c1)C[C@H](NC(=O)[C@H](C(C)C)N(C)C(=O)[C@H]1CCN(C(=O)C#CCN(C)C)C1)C(=O)N1CCC[C@H](N1)C(=O)OCC(C)(C)C2 [Example A140] | < 5000 nM | 1000 to 10000 nM | 10 to 100 nM | < 10 nM | < 10 nM | 1000 to 10000 nM | 1000 to 10000 nM | 1000 to 10000 nM | 1000 to 10000 nM | – | < 10 nM
5 | CC#CC(=O)N1CC[C@@H](C(=O)N(C)[C@H](C(=O)N[C@H]2Cc3cccc(c3)-c3ccc4c(c3)c(c(-c3cccnc3[C@H](C)OC)n4CC)CC(C)(C)COC(=O)[C@@H]3CCCN(N3)C2=O)C(C)C)C1 (atropisomer, axis not shown) [Example A487] | < 5000 nM | 1000 to 10000 nM | 100 to 1000 nM | 100 to 1000 nM | 100 to 1000 nM | 1000 to 10000 nM | 1000 to 10000 nM | 1000 to 10000 nM | 1000 to 10000 nM | – | 10 to 100 nM
6 | CCn1c(-c2cccnc2[C@H](C)OC)c2c3cc(ccc31)-c1cccc(c1)C[C@H](NC(=O)[C@H](C(C)C)N(C)C(=O)[C@H]1CCN(C(=O)/C=C/C(F)F)C1)C(=O)N1CCC[C@H](N1)C(=O)OCC(C)(C)C2 (atropisomer, axis not shown) [Example A485] | < 5000 nM | 1000 to 10000 nM | 100 to 1000 nM | 10 to 100 nM | 10 to 100 nM | 1000 to 10000 nM | 1000 to 10000 nM | 1000 to 10000 nM | > 10000 nM | – | < 10 nM
7 | C=CS(=O)(=O)N1CC[C@H](C(=O)N(C)[C@H](C(=O)N[C@H]2Cc3cc(O)cc(c3)-c3ccc4c(c3)c(c(-c3cccnc3[C@H](C)OC)n4CC)CC(C)(C)COC(=O)[C@@H]3CCCN(N3)C2=O)C(C)C)C1 (atropisomer, axis not shown) [Example A132] | < 5000 nM | 1000 to 10000 nM and 10 to 100 nM | 10 to 100 nM and < 10 nM | 10 to 100 nM and < 10 nM | 10 to 100 nM and < 10 nM | 100 to 1000 nM and 1000 to 10000 nM | 1000 to 10000 nM and 10 to 100 nM | 100 to 1000 nM and 1000 to 10000 nM | 1000 to 10000 nM and > 10000 nM | – | 10 to 100 nM
8 | CO[C@@H](C)c1ncccc1-c1c2c3cc(ccc3n1C)-c1cccc(c1)C[C@H](NC(=O)[C@H](C(C)C)N(C)C(=O)[C@H]1CCN(C(=O)C#CCN3CCOCC3)C1)C(=O)N1CCC[C@H](N1)C(=O)OCC(C)(C)C2 (atropisomer, axis not shown) [Example A192] | < 5000 nM | > 10000 nM | > 10000 nM | 100 to 1000 nM and 1000 to 10000 nM | 100 to 1000 nM and 1000 to 10000 nM | > 10000 nM | > 10000 nM | > 10000 nM | > 10000 nM | – | 100 to 1000 nM
9 | C=CC(=O)Nc1cnc(C(=O)N(C)[C@H](C(=O)N[C@H]2Cc3cccc(c3)-c3ccc4c(c3)c(c(-c3cccnc3[C@H](C)OC)n4CC)CC(C)(C)COC(=O)[C@@H]3CCCN(N3)C2=O)C(C)C)n1C (atropisomer, axis not shown) [Example A524] | < 5000 nM | > 10000 nM | 100 to 1000 nM | 100 to 1000 nM | 100 to 1000 nM | > 10000 nM | > 10000 nM | > 10000 nM | > 10000 nM | – | 10 to 100 nM
10 | CC#CC(=O)N1C[C@H](C)[C@H](C(=O)N(C)[C@H](C(=O)N[C@H]2Cc3cccc(c3)-c3ccc4c(c3)c(c(-c3cccnc3[C@H](C)OC)n4CC)CC(C)(C)COC(=O)[C@@H]3CCCN(N3)C2=O)C2CCCC2)C1 (atropisomer, axis not shown) [Example A402] | < 5000 nM | 1000 to 10000 nM | 1000 to 10000 nM | 100 to 1000 nM | 100 to 1000 nM | > 10000 nM | 1000 to 10000 nM | 1000 to 10000 nM | > 10000 nM | – | 10 to 100 nM
11 | CCn1c(-c2cccnc2[C@H](C)OC)c2c3cc(ccc31)-c1cc(O)cc(c1)C[C@H](NC(=O)[C@H](C(C)C)N(C)C(=O)c1ncc(NC(=O)/C=C/CN(C)C)s1)C(=O)N1CCC[C@H](N1)C(=O)OCC(C)(C)C2 (atropisomer, axis not shown) [Example A253] | < 5000 nM | 100 to 1000 nM | < 10 nM | 10 to 100 nM | 100 to 1000 nM | 100 to 1000 nM | 100 to 1000 nM | 1000 to 10000 nM | 1000 to 10000 nM | – | 100 to 1000 nM
12 | C=CC(=O)N1CC[C@H](C(=O)N(C)[C@H](C(=O)N[C@H]2Cc3cccc(c3)-c3ccc4c(c3)c(c(-c3cc5c(nc3[C@H](C)OC)CN(C)CC5)n4CC)CC(C)(C)COC(=O)[C@@H]3CCCN(N3)C2=O)C(C)C)C1 (atropisomer, axis not shown) [Example A446] | < 5000 nM | 1000 to 10000 nM | 1000 to 10000 nM | 100 to 1000 nM | 100 to 1000 nM | 1000 to 10000 nM | 1000 to 10000 nM | 1000 to 10000 nM | > 10000 nM | – | < 10 nM
